Experimental findings from patent US20120219615A1, “Therapeutic Use of a TLR Agonist and Combination Therapy” (The Trustees of the University of Pennsylvania, priority 2010, published 2012) are described below.

For the assay, the system named is OVCAR5 cells. In words: OVCAR5 apoptosis by annexin-V and 7AAD staining. The assay is classed as cell-based, human. How it is done: Cell viability Annexin V/7AAD: To detect apoptosis, tumor cells were stained with annexin V/7AAD (BD Pharmingen #559763). Apoptotic cells were analyzed by flow cytometry according to the manufacturer's protocol. Briefly, OVCAR5 cells grown and subjected to different treatments were collected and pelleted at 1200 rpm and then washed twice with ice-cold PBS and re-suspended in a binding buffer (Pharmingen #51-66121 E) at a concentration of 1×10^6 cells/mL; 100 μL of the solution (1×10^5 cells) was transferred to each of two 5-mL culture tubes. Five μL of annexin V-PE (Pharmingen #51-65875Y) and added to each 100 μL solution, gently vortexed, incubated for 15 min at room temperature in the dark, washed with PBS, incubated with 5 μL of 7AAD (BD Pharmingen #51-68981E) for 10 minutes, and analyzed by FACS within 1 h.
Besides tumor-specific CTLs, TLR8 activation may also invoke innate anti-tumor responses, including the release of soluble mediators such as members of the TNF family, which can act directly on tumor cells to induce apoptosis. […] Expression of the TNFα receptor 1 (TNFR1) in OVCAR5 cells was tested and documented by Western blot (FIG. 5C). During the sensitivity test of OVCAR5 cells to TNFα, cells were incubated for 24 hours with 20 ng/ml of TNFα, a dose that exerts direct cytotoxic effects. […]

Consider TNFα, for which the “TNFα-mediated apoptosis of OVCAR5 cells” value (20 ng/ml TNFα, 24 hours) is on record as “resistant to TNFα-mediated apoptosis”. In addition, the “apoptosis of OVCAR5 cells” value (PLD 1 μg/mL 24 h pre-incubation, then TNFα 20 ng/ml 12 h, or control media) is listed as “minimal apoptosis”.
